Biological target: T1, p300 (Homo sapiens, UniProt Q09472)
T1 construct: gene EP300; hexahistidine tagged full length p300
Assay: filter binding KAT assay with HeLa core histones; enzyme inhibition kinetics
Assay type: biochemical

T1 sequence (Q09472 2-2414): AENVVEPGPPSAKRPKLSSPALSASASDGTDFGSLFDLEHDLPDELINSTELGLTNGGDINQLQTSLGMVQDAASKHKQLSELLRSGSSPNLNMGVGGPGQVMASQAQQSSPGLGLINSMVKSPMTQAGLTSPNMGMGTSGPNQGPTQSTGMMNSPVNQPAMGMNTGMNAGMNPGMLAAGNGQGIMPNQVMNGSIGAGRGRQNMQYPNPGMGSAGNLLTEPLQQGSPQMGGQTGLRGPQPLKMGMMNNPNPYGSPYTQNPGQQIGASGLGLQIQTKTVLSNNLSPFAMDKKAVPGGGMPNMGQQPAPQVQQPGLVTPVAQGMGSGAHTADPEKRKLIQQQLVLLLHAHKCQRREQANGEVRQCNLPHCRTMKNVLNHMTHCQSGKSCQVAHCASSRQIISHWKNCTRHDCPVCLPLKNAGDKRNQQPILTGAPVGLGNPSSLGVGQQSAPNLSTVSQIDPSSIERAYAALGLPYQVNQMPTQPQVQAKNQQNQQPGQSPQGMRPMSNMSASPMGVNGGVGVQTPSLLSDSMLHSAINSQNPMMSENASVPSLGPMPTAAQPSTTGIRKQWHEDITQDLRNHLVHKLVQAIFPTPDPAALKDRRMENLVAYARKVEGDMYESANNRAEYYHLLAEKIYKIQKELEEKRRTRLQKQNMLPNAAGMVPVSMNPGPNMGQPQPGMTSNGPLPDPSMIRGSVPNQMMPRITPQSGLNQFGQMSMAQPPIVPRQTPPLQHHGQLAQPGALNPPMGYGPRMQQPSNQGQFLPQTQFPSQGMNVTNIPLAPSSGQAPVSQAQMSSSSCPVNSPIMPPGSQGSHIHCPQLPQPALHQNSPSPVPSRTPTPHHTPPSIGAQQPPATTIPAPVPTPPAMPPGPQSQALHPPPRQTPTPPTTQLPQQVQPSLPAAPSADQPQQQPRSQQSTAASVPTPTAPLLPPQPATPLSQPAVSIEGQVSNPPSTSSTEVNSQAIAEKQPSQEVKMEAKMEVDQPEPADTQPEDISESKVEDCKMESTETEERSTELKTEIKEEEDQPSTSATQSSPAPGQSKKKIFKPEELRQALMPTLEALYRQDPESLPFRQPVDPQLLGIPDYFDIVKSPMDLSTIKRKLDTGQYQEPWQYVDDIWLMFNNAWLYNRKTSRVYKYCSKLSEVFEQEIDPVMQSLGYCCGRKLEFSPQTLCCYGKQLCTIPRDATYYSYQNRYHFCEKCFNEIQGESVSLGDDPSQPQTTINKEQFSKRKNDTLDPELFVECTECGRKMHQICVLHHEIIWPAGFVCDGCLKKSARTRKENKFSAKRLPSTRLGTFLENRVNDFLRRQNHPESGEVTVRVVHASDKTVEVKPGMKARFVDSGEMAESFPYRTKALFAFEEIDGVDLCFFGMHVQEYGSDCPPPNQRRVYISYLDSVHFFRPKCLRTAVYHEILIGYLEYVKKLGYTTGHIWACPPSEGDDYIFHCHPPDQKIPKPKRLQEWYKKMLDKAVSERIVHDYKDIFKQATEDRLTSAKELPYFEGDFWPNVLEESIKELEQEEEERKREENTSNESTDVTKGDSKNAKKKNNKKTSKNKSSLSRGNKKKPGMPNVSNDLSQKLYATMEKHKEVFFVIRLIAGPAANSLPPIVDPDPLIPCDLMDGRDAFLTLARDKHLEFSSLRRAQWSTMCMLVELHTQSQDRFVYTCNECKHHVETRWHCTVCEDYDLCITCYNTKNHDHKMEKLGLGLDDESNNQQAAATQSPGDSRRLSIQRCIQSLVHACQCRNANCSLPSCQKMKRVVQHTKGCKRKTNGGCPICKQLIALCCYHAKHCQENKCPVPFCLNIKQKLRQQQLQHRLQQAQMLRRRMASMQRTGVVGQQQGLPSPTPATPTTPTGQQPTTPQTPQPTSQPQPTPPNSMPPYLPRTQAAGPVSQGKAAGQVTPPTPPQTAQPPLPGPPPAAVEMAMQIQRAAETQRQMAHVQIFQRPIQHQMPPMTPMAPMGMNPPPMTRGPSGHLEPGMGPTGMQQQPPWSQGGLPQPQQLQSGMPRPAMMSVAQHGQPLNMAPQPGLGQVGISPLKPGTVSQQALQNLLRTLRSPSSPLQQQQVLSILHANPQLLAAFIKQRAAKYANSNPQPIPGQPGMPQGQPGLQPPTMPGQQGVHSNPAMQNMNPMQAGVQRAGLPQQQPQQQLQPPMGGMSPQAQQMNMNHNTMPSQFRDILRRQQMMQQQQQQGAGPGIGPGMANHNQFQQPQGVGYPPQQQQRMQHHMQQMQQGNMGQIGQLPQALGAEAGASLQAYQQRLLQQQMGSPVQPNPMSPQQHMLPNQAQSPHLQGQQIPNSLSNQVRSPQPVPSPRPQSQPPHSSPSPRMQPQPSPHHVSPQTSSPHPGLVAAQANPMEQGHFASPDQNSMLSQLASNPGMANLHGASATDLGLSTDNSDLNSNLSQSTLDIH

Compound `O=c1cc(-c2ccc(O)c(O)c2)oc2cc(O)cc(O)c12` [luteolin] has an IC50 of 7 µM.
